We go through 3 compounds from patent US6544967B2, “Method for inhibiting bone resorption” (Merck & Co., Inc., priority 1997, dated 2003).

In the data set the test system is canine esophagus tissue. The data set can be described thus: Esophageal irritation potential, dog model (esophageal infusion in simulated gastric juice, histopathology). Format: in vivo. Particulars: for Histopathology of esophagus (photomicrographs): 50 mL; for Esophageal irritation potential: low dosages on consecutive days (Group 7 risedronate, Group 8 tiludronate). The method, then: The esophageal irritation potential of the bisphosphonates is evaluated using a dog model.
The following solutions are prepared:
(1) simulated gastric juice (pH about 2), i.e. the control solution.
(5) simulated gastric juice (pH about 2) containing about 0.20 mg/mL of risedronate sodium on a risedronic acid active basis.
(6) simulated gastric juice (pH about 2) containing about 4.0 mg/mL of tiludronate disodium on a tiludronic acid active basis.
The simulated gastric juice is prepared by dissolving about 960 mg of pepsin (L-585,228000B003, Fisher Chemical) in about 147 mL of 0.90 (wt %) NaCl (aqueous), adding about 3 mL of 1.0 M HCl (aqueous), and adjusting the volume to about 300 mL with deionized water. The pH of the resulting solution is measured and if necessary is adjusted to about 2 using 1.0 M HCl (aqueous) or 1.0 M NaOH (aqueous).
The animals used in the experiments are anesthetized and administered about 50 mL of the appropriate solution over about 30 minutes by infusion into the esophagus using an infusion pump and a rubber catheter. The following treatment experiments are run:
Group 1: This control group contains four animals. Each animal is administered a dosage of about 50 mL of simulated gastric juice [solution (1)] on each of five consecutive days. The animals are sacrificed immediately after the last dose is administered.
Group 2: This group contains four animals. […] The animals are sacrificed immediately after the last dose is administered.
Group 3: This group contains five animals. […] The animals are sacrificed about 24 hours after the dose is administered.
Group 4: This group contains five animals. […] The animals are sacrificed about 7 days after the dose is administered.
Group 5: This group contains six animals. […] The animals are administered a total of four dosages. The animals are sacrificed about 7 days after the last dose is administered.
Group 6: This group contains six animals. […] The animals are administered a total of eight dosages. The animals are sacrificed about four days after the last dose is administered.
Group 7: This group contains eight animals. Each animal is administered a dosage of about 50 mL of simulated gastric juice containing about 0.20 mg/mL of risedronate [solution (5)] on each of five consecutive days. The animals are sacrificed immediately after the last dose is administered.
Group 8: This group contains four animals. Each animal is administered a dosage of about 50 mL of simulated gastric juice containing about 4.0 mg/mL of tiludronate on each of five consecutive days. The animals are sacrificed immediately after the last dose is administered.
The esophagus from each sacrificed animal is removed and prepared for histopathology using standard techniques by embedding the tissue in paraffin, staining with hematoxylin and eosin. The sections are examined microscopically.

`O=P(O)(O)C(Sc1ccc(Cl)cc1)P(=O)(O)O` [Tiludronate, (4-chlorophenyl)thiomethane-1,1-disphosphonic acid]: the Esophageal irritation potential result is given as “high”. Besides, the “Histopathology of esophagus (photomicrographs)” value (Group 8: 4.0 mg/mL, five consecutive days, sacrifice immediately after last dose) was “slight ulceration of the epithelial surface and slight submucosal inflammation and vacuolation”.

`NCCCC(O)(P(=O)(O)O)P(=O)(O)O` [Alendronate, 4-amino-1-hydroxybutylidene-1,1-bisphosphonic acid monosodium trihydrate]: the Histo-pathology result reads like this: (Group 2 (n = 4): 0.20 mg/mL, 50 mL in simulated gastric juice pH about 2, 1X daily for 5 days, sacrifice immediately after last dosing, monosodium trihydrate) “deep ulceration of the epithelial surface and marked submucosal inflammation and vacuolation”; (Group 3 (n = 5): 0.80 mg/mL, 50 mL in simulated gastric juice, 1X, sacrifice 24 hours after dosing, monosodium trihydrate) “intact epithelial surface with very slight submucosal inflammation and vacuolation”; (Group 4 (n = 5): 0.80 mg/mL, 50 mL in simulated gastric juice, 1X, sacrifice 7 days after dosing, monosodium trihydrate) “intact epithelium with either minimal inflammation (two of the five animals) or no inflammation (three of the five animals) and no vacuolation”; (Group 5 (n = 6): 0.80 mg/mL, 50 mL in simulated gastric juice, 1X weekly for a total of 4 doses, sacrifice 7 days after last dosing, monosodium trihydrate) “normal with an intact epithelium and absence of inflammatory cells in the submucosa”. For the same compound, the “Histopathology of esophagus (photomicrographs)” value (Group 6: 0.40 mg/mL, twice per week for four weeks (eight dosages), sacrifice about four days after last dose) was “deep ulceration of the epithelial surface and marked submucosal inflammation and vacuolation”.

Consider `O=P(O)(O)C(O)(Cc1cccnc1)P(=O)(O)O` [Risedronate, 1-hydroxy-2-(3-pyridinyl)-ethylidene-1,1-bisphosphonic acid], for which the Esophageal irritation potential result was “high”. The Histo-pathology entry (Group 7 (n = 8): 0.20 mg/mL, 50 mL in simulated gastric juice, 1X daily for 5 days, sacrifice immediately after last dosing) was “deep ulceration of the epithelial surface and marked submucosal inflammation and vacuolation”.
